# Results from paper PMC11069494, “Production of highly cytotoxic and low immunogenic L-asparaginase from Stenotrophomonas maltophilia EMCC2297” (AMB Express, 2024).
# Tested on: T1, L-asparaginase (N-SMASP)
# T1 construct: native enzyme purified from culture supernatant of chloramphenicol-selected colonies (ammonium sulfate, Sephadex G-100); single 17 kDa band on SDS-PAGE
# Test: Nessler ammonia release assay, Lineweaver-Burk
# Type: biochemical, Stenotrophomonas maltophilia
# Details: 0.05 M Tris-HCl pH 8.6, 37 °C
structure (smiles),measurement,value
NC(=O)C[C@H](N)C(=O)O [L-asparagine],Km,41.6 mM
